Results: US11932623B2, “Uracil compounds and use thereof” (Sumitomo Chemical Company, Limited, priority 2018, dated 2024)

Columns and labels:
Type in all cases: in vivo
[1] = test system: Ivyleaf morning glory (Ipomoea hederacea); assay: Test Example 1: post-emergence foliar spray pot test, weed control efficacy; settings: for efficacy on controlling weeds against Ivyleaf morning glory (Ipomoea hederacea), in words: 20 or 10 gai/ha; for control efficacy, Ipomoea hederacea: foliar spray 204 L/ha on plants grown 15 days, assessed after 11 days in greenhouse, scale 0 to 100 (all dead)
Source text: (§1) In the Test Examples as described below, for the assessment of weeds-controlling efficacy, the efficacy is defined as “0” if the condition of budding or growth of test pants in the treated area indicates little or no difference compared to that of the untreated area at the time of the investigation.
(§2) The “untreated group” represents a group where a similar treatment procedure to that of the treated group except not using the compound A is done.
(§3) A plastic pot was filled with soil. Ivyleaf morning glory (Ipomoea hederacea), Redroot pigweed (Amaranthus retroflexus) and corn were seeded to the plastic pot, and the plants are grown in a greenhouse for 15 days. A prescribed amount of the formulation prepared by the method of the formulation example 1 was diluted with water containing 1% of Agridex (registered trademark) to obtain a diluted solution. The diluted solution was uniformly sprayed at a rate of 204 L/ha from the upper side of the plants such that the applied dose of the compound A was made to 20 gai/ha or 10 gai/ha. Thereafter, the plants were grown in a greenhouse for 11 days, and the control efficacies were assessed by the above-mentioned method. The results are shown in [Table 1].
(§4) The comparative test was conducted by using the compound B in place of the compound A according to a similar method to that described in the Test example 1.

[2] = test system: Redroot pigweed (Amaranthus retroflexus); assay: as above; settings: for efficacy on controlling weeds against Redroot pigweed (Amaranthus retroflexus), in words: 20 or 10 gai/ha; for control efficacy, Amaranthus retroflexus: foliar spray 204 L/ha on plants grown 15 days, assessed after 11 days in greenhouse
Source text: as §1, §2, §3, §4

corn = assay: Test Example 1: post-emergence foliar spray pot test, safety against useful plants (phytotoxicity); settings: for Corn (phytotoxicity score): foliar spray 204 L/ha on plants grown 15 days, assessed after 11 days in greenhouse
Source text: Further, Test Examples are used to show an efficacy of the compound A on controlling weeds and safety against useful plants (phytotoxicity)
as §1, §2, §3, §4

[3] = applied dose 10 gai/ha, scale 0 to 100 (all dead)
[4] = applied dose 20 gai/ha, scale 0 (no difference to untreated) to 100 (all dead)

## CCOC(=O)COc1ncccc1Oc1cc(-n2c(=O)cc(C(F)(F)F)n(C)c2=O)c(F)cc1Cl [Compound B]
[1]
  efficacy on controlling weeds against Ivyleaf morning glory (Ipomoea hederacea), in words: high efficacies
[1]; applied dose 10 gai/ha
  control efficacy, Ipomoea hederacea: 100
[1]; applied dose 20 gai/ha
  control efficacy, Ipomoea hederacea: 100
[2]
  efficacy on controlling weeds against Redroot pigweed (Amaranthus retroflexus), in words: high efficacies
[2]; [3]
  control efficacy, Amaranthus retroflexus: 100
[2]; [4]
  control efficacy, Amaranthus retroflexus: 100
corn; 20 or 10 gai/ha
  phytotoxicity against corn, in words: high phytotoxicity
corn; [3]
  Corn (phytotoxicity score): 100
corn; [4]
  Corn (phytotoxicity score): 100

## CCOC(=O)COc1ncccc1Oc1cc(-n2c(=O)cc(C(F)(F)F)n(C)c2=O)c(Cl)cc1Cl [Compound A]
[1]
  efficacy on controlling weeds against Ivyleaf morning glory (Ipomoea hederacea), in words: high efficacies
[1]; applied dose 10 gai/ha
  control efficacy, Ipomoea hederacea: 100
[1]; applied dose 20 gai/ha
  control efficacy, Ipomoea hederacea: 100
[2]
  efficacy on controlling weeds against Redroot pigweed (Amaranthus retroflexus), in words: high efficacies
[2]; [3]
  control efficacy, Amaranthus retroflexus: 100
[2]; [4]
  control efficacy, Amaranthus retroflexus: 100
corn; in vivo
  phytotoxicity against corn, in words: low phytotoxicity
